Assay results as given in patent US20100286193A1, “Novel Azabicyclo[3.2.1]Oct-2-Ene Derivatives and Their Use as Monoamine Neurotransmitter Re-Uptake Inhibitors” (priority 2005, published 2010).
Where a name gives a salt, the structure may show the parent alone.

What was measured:
[1] = molecular target: T1, dopamine (DA) reuptake in synaptosomes (Rattus norvegicus, UniProt P23977); experiment: Inhibition of dopamine reuptake in synaptosomes; type: biochemical; details: 3H-DA, as described in WO 97/16451, read-out: DA-uptake IC50
T1 construct: in synaptosomes as described in WO 97/16451; from tissue
T1 sequence (P23977 whole entry): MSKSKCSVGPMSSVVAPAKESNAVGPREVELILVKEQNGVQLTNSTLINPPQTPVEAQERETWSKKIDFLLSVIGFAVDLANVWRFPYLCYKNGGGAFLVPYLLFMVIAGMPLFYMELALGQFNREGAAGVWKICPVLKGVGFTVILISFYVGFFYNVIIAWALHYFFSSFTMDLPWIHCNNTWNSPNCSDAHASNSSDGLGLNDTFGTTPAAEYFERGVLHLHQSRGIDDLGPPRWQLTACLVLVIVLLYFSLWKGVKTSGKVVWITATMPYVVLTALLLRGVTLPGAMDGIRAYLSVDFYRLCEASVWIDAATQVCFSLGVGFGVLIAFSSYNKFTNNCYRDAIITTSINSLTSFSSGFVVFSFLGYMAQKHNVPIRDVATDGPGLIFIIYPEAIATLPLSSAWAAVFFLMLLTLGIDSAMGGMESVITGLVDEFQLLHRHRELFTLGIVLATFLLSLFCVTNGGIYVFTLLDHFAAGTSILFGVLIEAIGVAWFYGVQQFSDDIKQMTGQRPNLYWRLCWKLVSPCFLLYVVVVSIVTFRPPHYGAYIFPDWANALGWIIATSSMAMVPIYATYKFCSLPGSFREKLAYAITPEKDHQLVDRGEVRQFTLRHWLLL

[2] = molecular target: T2, noradrenaline (NA) reuptake in synaptosomes (Rattus norvegicus, UniProt Q63380); experiment: Inhibition of noradrenaline reuptake in synaptosomes; type: biochemical; details: 3H-NA, as described in WO 97/16451, read-out: NA-uptake IC50
T2 construct: in synaptosomes as described in WO 97/16451; from tissue
T2 sequence (Q63380 1-617): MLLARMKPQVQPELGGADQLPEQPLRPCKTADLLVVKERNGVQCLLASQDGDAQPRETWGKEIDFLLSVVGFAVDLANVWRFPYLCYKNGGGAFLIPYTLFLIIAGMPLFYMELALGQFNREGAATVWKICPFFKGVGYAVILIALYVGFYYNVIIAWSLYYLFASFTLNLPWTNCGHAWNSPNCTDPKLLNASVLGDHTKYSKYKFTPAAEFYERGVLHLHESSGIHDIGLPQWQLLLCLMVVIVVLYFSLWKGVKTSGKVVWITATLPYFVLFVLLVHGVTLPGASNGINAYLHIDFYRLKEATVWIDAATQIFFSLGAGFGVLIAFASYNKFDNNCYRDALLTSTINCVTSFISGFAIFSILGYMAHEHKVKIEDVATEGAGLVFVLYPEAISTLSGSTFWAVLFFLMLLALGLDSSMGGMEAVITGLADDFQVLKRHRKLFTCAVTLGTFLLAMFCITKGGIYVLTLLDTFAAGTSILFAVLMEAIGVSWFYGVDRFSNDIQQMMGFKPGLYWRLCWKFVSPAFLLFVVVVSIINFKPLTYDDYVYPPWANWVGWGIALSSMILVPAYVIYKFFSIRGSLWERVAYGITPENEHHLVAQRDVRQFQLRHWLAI

[3] = molecular target: T3, serotonine (5-HT) reuptake in synaptosomes (Rattus norvegicus, UniProt P31652); experiment: Inhibition of serotonin reuptake in synaptosomes; type: biochemical; details: 3H-5-HT, as described in WO 97/16451, read-out: 5-HT-uptake IC50
T3 construct: in synaptosomes as described in WO 97/16451; from tissue
T3 sequence (P31652 whole entry): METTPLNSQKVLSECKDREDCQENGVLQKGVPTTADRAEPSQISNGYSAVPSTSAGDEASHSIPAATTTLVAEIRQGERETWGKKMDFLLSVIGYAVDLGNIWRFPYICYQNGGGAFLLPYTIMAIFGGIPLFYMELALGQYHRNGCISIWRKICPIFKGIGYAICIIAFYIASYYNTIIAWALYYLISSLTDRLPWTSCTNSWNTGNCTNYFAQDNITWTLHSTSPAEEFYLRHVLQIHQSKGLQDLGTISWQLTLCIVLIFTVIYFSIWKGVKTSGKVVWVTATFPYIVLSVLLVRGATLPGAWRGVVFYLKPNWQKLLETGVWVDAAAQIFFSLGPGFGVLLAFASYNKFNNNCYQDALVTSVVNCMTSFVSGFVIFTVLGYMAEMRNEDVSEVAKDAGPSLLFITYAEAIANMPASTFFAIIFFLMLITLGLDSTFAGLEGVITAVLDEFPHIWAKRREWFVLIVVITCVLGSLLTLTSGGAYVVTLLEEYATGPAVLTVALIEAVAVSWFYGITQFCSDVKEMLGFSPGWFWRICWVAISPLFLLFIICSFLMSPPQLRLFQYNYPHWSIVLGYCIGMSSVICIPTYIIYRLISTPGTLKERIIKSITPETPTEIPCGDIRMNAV

| Compound | IC50 [1] [nM] | IC50 [2] [nM] | IC50 [3] [nM] | melting point [°C] |
| --- | --- | --- | --- | --- |
| Cc1ccc(C2=CC3CCC(C2)N3)cc1Br (racemic) [(±)-3-(3-Bromo-4-methylphenyl)-8-H-8-azabicyclo[3.2.1]oct-2-ene hydrochloric acid salt] | 13 | 15 | 1.4 | – |
| Cc1cc(C2=CC3CCC(C2)N3)ccc1Cl (single isomer, unassigned; (+)) (as salt: tartaric acid salt) [(+)-3-(4-Chloro-3-methylphenyl)-8-H-8-azabicyclo[3.2.1]oct-2-ene D-tartaric acid salt] | – | – | – | 164 to 177 |
| Cc1cc(C2=CC3CCC(C2)N3)ccc1Cl (single isomer, unassigned; (+)) [(+)-3-(4-Chloro-3-methylphenyl)-8-H-8-azabicyclo[3.2.1]oct-2-ene D-tartaric acid salt] | 110 | 8.2 | 2.3 | – |
| Cc1ccc(C2=CC3CCC(C2)N3)cc1Cl (single isomer, unassigned; (-)) (as salt: tartaric acid salt) [(−)-3-(3-Chloro-4-methylphenyl)-8-H-8-azabicyclo[3.2.1]oct-2-ene L-tartaric acid salt] | – | – | – | 156.3 to 161.5 |
| Cc1ccc(C2=CC3CCC(C2)N3)cc1Cl (single isomer, unassigned; (-)) [(−)-3-(3-Chloro-4-methylphenyl)-8-H-8-azabicyclo[3.2.1]oct-2-ene L-tartaric acid salt] | 140 | 6.8 | 1.8 | – |
